Test results reported in patent publication US5618837A, “PDGF antagonists III” (ZymoGenetics, Inc., priority 1995, dated 1997).

Columns and labels:
[1] = test system: PDGF-BB mitogenic activity on baboon smooth muscle cells; test: Inhibition of PDGF-BB mitogenic activity on baboon smooth muscle cells ([3H] thymidine incorporation); format: cell-based
Procedure: Brefeldin A was analyzed for the ability to inhibit the mitogenic activity of PDGF on baboon smooth muscle cells. All mitogenesis assays performed on baboon vascular smooth muscle cells (BVSMCs) were done on primary cultures of cells between passages 13 and 20 in culture. The initial cultures were established from outgrowth of aortic tissue explants. Baboon smooth muscle cells were plated at approximately 20,000 cells per well, in DMEM supplemented with 10% fetal calf serum, into 24-well culture dishes. One day prior to use the culture media was removed, and 1 ml of Mito Media (Table 3) was added to each well to allow the cells to become quiescent. At the time of the experiment the cells were stimulated with PDGF-BB. […] 20X stock solutions were made for each of the PDGF concentrations by dilution in 10 mM acetic acid containing 0.25% albumin, and 50 μl of PDGF or dilution vehicle alone was added to the culture wells. To analyze the activity of Brefeldin A to neutralize PDGF-BB mitogenic activity, 1 ng/ml of PDGF was added to wells along with dilutions of Brefeldin A. The cells were incubated with the test samples for approximately 20 hours at 37° C. Fifty μl of a 20x stock solution was then added to each well to give a final concentration of 1 μCi/ml. The cells were incubated for 4 hours at 37° C., washed with PBS, then harvested with trypsin and counted for [^3 H] thymidine incorporation in a Wallac (Turku, Finland) Betaplate™ liquid scintillation counter. […] As part of this same experiment, the inhibitory potency of Brefeldin A was analyzed in the presence of heparin to determine if heparin is able to act in a combinatorial manner with Brefeldin A for inhibiting PDGF-BB mitogenic activity. Baboon smooth muscle cells were incubated in Brefeldin A with 1 ng/ml PDGF-BB in the presence of 0.5 U/ml of unfractionated heparin. The cells were pulse-labeled with [^3 H] thymidine as described above, and the level of [^3 H] thymidine incorporation was determined.

[2] = test system: 125I-PDGF-BB binding to rat SMCs; test: Inhibition of 125I-PDGF-BB binding to rat smooth muscle cells; settings: 4° C.; for % Control Binding: negative control = 100, 90 min; for 125I PDGF-BB Bound (CPM): specific cpm, nonspecific subtracted, negative control 10006
Procedure: Brefeldin A was analyzed for the ability to inhibit ^125 I-PDGF-BB binding to monolayers of rat SMCs. SMCs were plated at approximately 20,000 cells/well in 24-well culture dishes. The cells were used for assay 2-7 days after plating. The test compound was diluted in binding media (500 ml Hams F-12 (Gibco BRL), 12 ml 1M Hepes pH 7.4, 5 ml 100X PSN, 1 gm rabbit serum albumin (Sigma Chemical Co., St. Louis, Mo.) to the concentrations shown in Table 2, then added to the SMCs (1 ml/well) in triplicate. To the wells was then added 50 μl of a ^125 I-PDGF-BB binding stock solution. Binding media alone was used as the negative control, and the addition of 200 ng/ml of PDGF-BB was used to determine nonspecific binding for ^125 I-PDGF-BB. The cells were incubated for approximately 11/2 hours at 4° C., then washed with binding media to remove unbound ligand. The cells were then incubated with extraction buffer (20 mM Tris-HCl pH 8.0, 100 mM NaCl, 1 mM EDTA, 0.5% sodium deoxycholate, 10 mM NaI, 1% bovine serum albumin), and the extracts were harvested and counted in a gamma counter. The data are presented as specific cpm bound for ^125 I-PDGF-BB. Nonspecific binding, determined by the addition of 200 ng/ml of unlabeled PDGF-BB, was 853 cpm, and has been subtracted from the data presented.

[3] = test system: EGF-induced SRE-luciferase expression in SWISS3T3 cells; test: SRE-luciferase reporter antagonist assay, EGF induction; format: cell-based; settings: 4.5 ng/ml EGF; SWISS3T3/KZ67-G1-6 cells; 5 hours at 37° C.
Procedure: (§1) Initial characterization of Brefeldin A as a non-peptide PDGF antagonist was made possible through an SRE-Luciferase high through-put assay system which identifies substances that are able to block expression of a serum response element (SRE)-luciferase reporter gene expressed in SWISS3T3 cells. […] The degree of antagonist specificity can be determined by comparing the resultant signal for the three growth factors (PDGF, bFGF, and EGF). […]
(§2) Folowing induction, luciferase activity was measured using a Promega luciferase assay kit (E1500; Promega Corp., Madison, Wis.) according to the assay kit protocol. […] The amount of luminescence (relative light units, RLU) was determined following a 1 second mix and a 1-3 integration of signal. Basal (uninduced) luciferase signal was substracted from all measurements,and the luciferase signal induced by test samples was expressed as a percentage of the signal from the controls. […]

[4] = test system: bFGF-induced SRE-luciferase expression in SWISS3T3 cells; test: SRE-luciferase reporter antagonist assay, bFGF induction; format: cell-based; settings: 2.0 ng/ml bFGF; SWISS3T3/KZ67-G1-6 cells; 5 hours at 37° C.
Procedure: as §1, §2

## CC1CCCC=CC2CC(O)CC2C(O)C=CC(=O)O1 (centres unmarked) [Brefeldin A, 1,6,7,8,9,11a,12,13,14,14a-Decahydro-1,13-dihydroxy-6-methyl-4H-cyclopent[f]oxacyclotridecin-4-one]
[1]; 1 ng/ml PDGF-BB
  PDGF-BB mitogenic activity inhibition (in words): inhibited by Brefeldin A in a dose dependent fashion
[1]; 12.5 nM, 1 ng/ml PDGF-BB
  3H Thymidine (CPM Incorporated), (+) 0.5 U/ml Heparin: 854 CPM
  3H Thymidine (CPM Incorporated), (-) Heparin: 1293 CPM
[1]; 25 nM, 1 ng/ml PDGF-BB
  3H Thymidine (CPM Incorporated), (+) 0.5 U/ml Heparin: 684 CPM
  3H Thymidine (CPM Incorporated), (-) Heparin: 798 CPM
[1]; 50 nM, 1 ng/ml PDGF-BB
  3H Thymidine (CPM Incorporated), (+) 0.5 U/ml Heparin: 44 CPM
  3H Thymidine (CPM Incorporated), (-) Heparin: 36 CPM
[1]; 100 nM, 1 ng/ml PDGF-BB
  3H Thymidine (CPM Incorporated), (+) 0.5 U/ml Heparin: 31 CPM
  3H Thymidine (CPM Incorporated), (-) Heparin: 39 CPM
[1]; Papio anubis, 1 ng/ml PDGF-BB, baboon smooth muscle cells, read-out: ED50 for the inhibition of PDGF-BB mitogenic activity
  IC50: ~25 nM
[1]; baboon SMC mitogenesis vs rat SMC binding, fold lower
  doses inhibiting PDGF-BB mitogenic activity versus doses required to inhibit PDGF binding to rat SMCs: 1000 fold
[1]; with 0.5 U/ml unfractionated heparin, 1 ng/ml PDGF-BB, versus Brefeldin A alone
  inhibition of [3H] thymidine on addition of heparin (in words): further inhibition of [^3 H] thymidine above that achieved by Brefeldin A alone
[2]; 50 μM
  % Control Binding: 92%
  125I PDGF-BB Bound (CPM): 9199 CPM
[2]; 100 μM
  % Control Binding: 89%
  125I PDGF-BB Bound (CPM): 8879 CPM
[3]
  EGF EC50: No activity
[4]
  bFGF EC50: No activity

B1: PDGF-BB: platelet derived growth factor (protein, UniProt P01127 82-190, looked up)
Platelet-derived growth …: SLGSLTIAEPAMIAECKTRTEVFEISRRLIDRTNANFLVWPPCVEVQRCSGCCNNRNVQCRPTQVQLRPVQVRKIEIVRKKPIFKKATVTLEDHLACKCETVAAARPVT
[1]; PDGF-BB standard curve, 0.062 ng/ml
  3H Thymidine (CPM Incorporated), (-) Heparin: 120 CPM
[1]; PDGF-BB standard curve, 0.125 ng/ml
  3H Thymidine (CPM Incorporated), (-) Heparin: 226 CPM
[1]; PDGF-BB standard curve, 0.25 ng/ml
  3H Thymidine (CPM Incorporated), (-) Heparin: 392 CPM
[1]; PDGF-BB standard curve, 0.5 ng/ml, 0 ng/ml gives 74
  3H Thymidine (CPM Incorporated), (-) Heparin: 959 CPM
[1]; PDGF-BB standard curve, 1 ng/ml
  3H Thymidine (CPM Incorporated), (-) Heparin: 1701 CPM
